Experimental data reported in the NIST ThermoML archive (doi:10.1021/acs.jced.6b00354).

Settings: 101.33 kPa, Liquid, Vibrating tube method

CC(=O)N(C)C [N,N-dimethylethanamide]
Settings	mass density [kg/m3]
283.15 K	950.189
288.15 K	945.589
293.15 K	940.983
298.15 K	936.38
303.15 K	931.762
308.15 K	927.145
313.15 K	922.523
318.15 K	917.893
